Source: patent US20210127673A1, “HERBICIDES” (SYNGENTA PARTICIPATIONS AG, priority 2016, published 2021)

Key:
Type in all cases: in vivo
Conditions in all cases: 1000 g/ha, evaluated after 13 days
[1] = system: Triticum aestivium (TRZAW); assay: Pre-emergence herbicidal activity, Triticum aestivium; design: key: 5=total damage to plant; 0=no damage to plant
Outline: (§1)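 Damage is rated on a 0–5 scale (0 = no damage, 5 = total damage) 13 days after treatment. Pots of sown seed are sprayed one day after sowing with an aqueous solution from acetone/water (50:50) with 0.5% Tween 20, then kept under controlled glasshouse conditions.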

[2] = system: Avena fatua (AVEFA); assay: Pre-emergence herbicidal activity, Avena fatua; design: key: 5=total damage to plant; 0=no damage to plant
Outline: as §1

[3] = system: Alopecurus myosuroides (ALOMY); assay: Pre-emergence herbicidal activity, Alopecurus myosuroides; design: key: 5=total damage to plant; 0=no damage to plant
Outline: as §1

[4] = system: Echinochloa crus-galli (ECHCG); assay: Pre-emergence herbicidal activity, Echinochloa crus-galli
Outline: as §1

[5] = system: Lolium perenne (LOLPE); assay: Pre-emergence herbicidal activity, Lolium perenne; design: key: 5=total damage to plant; 0=no damage to plant
Outline: as §1

[6] = system: Setaria faberi (SETFA); assay: Pre-emergence herbicidal activity, Setaria faberi
Outline: as §1

[7] = system: Triticum aestivium (TRZAW); assay: Post-emergence herbicidal activity, Triticum aestivium; design: key: 5=total damage to plant; 0=no damage to plant
Outline: (§2)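 Scoring runs 0 (no damage) to 5 (total damage), assessed 13 days after treatment. Seedlings 8 days post-sowing received an aqueous spray from acetone/water 50:50 with 0.5% Tween 20, then were kept at 24/16 °C, 14 h light, 65% humidity and watered twice daily.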

[8] = system: Avena fatua (AVEFA); assay: Post-emergence herbicidal activity, Avena fatua
Outline: as §2

[9] = system: Alopecurus myosuroides (ALOMY); assay: Post-emergence herbicidal activity, Alopecurus myosuroides; design: key: 5=total damage to plant; 0=no damage to plant
Outline: as §2

[10] = system: Echinochloa crus-galli (ECHCG); assay: Post-emergence herbicidal activity, Echinochloa crus-galli; design: key: 5=total damage to plant; 0=no damage to plant
Outline: as §2

[11] = system: Lolium perenne (LOLPE); assay: Post-emergence herbicidal activity, Lolium perenne
Outline: as §2

[12] = system: Setaria faberi (SETFA); assay: Post-emergence herbicidal activity, Setaria faberi; design: key: 5=total damage to plant; 0=no damage to plant
Outline: as §2

## COCCNC(=O)Nc1ccc(-c2cncc(F)c2)nc1C(F)(F)F [Compound B60]
[1]
  Control of TRAZW after pre-emergence application (score 0-5): 0
[2]
  Control of AVEFA after pre-emergence application (score 0-5): 1
[3]
  Control of ALOMY after pre-emergence application (score 0-5): 0
[4]
  Control of ECHCG after pre-emergence application (score 0-5): 4
[5]
  Control of LOLPE after pre-emergence application (score 0-5): 1
[6]
  Control of SETFA after pre-emergence application (score 0-5): 2
[7]
  Control of TRAZW after post-emergence application (score 0-5): 1
[8]
  Control of AVEFA after post-emergence application (score 0-5): 2
[9]
  Control of ALOMY after post-emergence application (score 0-5): 1
[10]
  Control of ECHCG after post-emergence application (score 0-5): 5
[11]
  Control of LOLPE after post-emergence application (score 0-5): 2
[12]
  Control of SETFA after post-emergence application (score 0-5): 5

## C#CCOC(=O)Nc1ccc(-c2cncc(F)c2)nc1C(F)(F)F [Compound B61]
[1]
  Control of TRAZW after pre-emergence application (score 0-5): 0
[2]
  Control of AVEFA after pre-emergence application (score 0-5): 2
[3]
  Control of ALOMY after pre-emergence application (score 0-5): 1
[4]
  Control of ECHCG after pre-emergence application (score 0-5): 3
[5]
  Control of LOLPE after pre-emergence application (score 0-5): 1
[6]
  Control of SETFA after pre-emergence application (score 0-5): 2
[7]
  Control of TRAZW after post-emergence application (score 0-5): 0
[8]
  Control of AVEFA after post-emergence application (score 0-5): 2
[9]
  Control of ALOMY after post-emergence application (score 0-5): 1
[10]
  Control of ECHCG after post-emergence application (score 0-5): 4
[11]
  Control of LOLPE after post-emergence application (score 0-5): 2
[12]
  Control of SETFA after post-emergence application (score 0-5): 4

## N#CCCOC(=O)Nc1ccc(-c2cncc(F)c2)nc1C(F)(F)F [Compound B62]
[1]
  Control of TRAZW after pre-emergence application (score 0-5): 0
[2]
  Control of AVEFA after pre-emergence application (score 0-5): 2
[3]
  Control of ALOMY after pre-emergence application (score 0-5): 1
[4]
  Control of ECHCG after pre-emergence application (score 0-5): 3
[5]
  Control of LOLPE after pre-emergence application (score 0-5): 1
[6]
  Control of SETFA after pre-emergence application (score 0-5): 3
[7]
  Control of TRAZW after post-emergence application (score 0-5): 0
[8]
  Control of AVEFA after post-emergence application (score 0-5): 3
[9]
  Control of ALOMY after post-emergence application (score 0-5): 0
[10]
  Control of ECHCG after post-emergence application (score 0-5): 5
[11]
  Control of LOLPE after post-emergence application (score 0-5): 2
[12]
  Control of SETFA after post-emergence application (score 0-5): 4

## O=C(Nc1ccc(-c2cncc(F)c2)nc1C(F)(F)F)N1CCCC1 [Compound B63]
[1]
  Control of TRAZW after pre-emergence application (score 0-5): 0
[2]
  Control of AVEFA after pre-emergence application (score 0-5): 0
[3]
  Control of ALOMY after pre-emergence application (score 0-5): 1
[4]
  Control of ECHCG after pre-emergence application (score 0-5): 2
[5]
  Control of LOLPE after pre-emergence application (score 0-5): 0
[6]
  Control of SETFA after pre-emergence application (score 0-5): 2
[7]
  Control of TRAZW after post-emergence application (score 0-5): 0
[8]
  Control of AVEFA after post-emergence application (score 0-5): 2
[9]
  Control of ALOMY after post-emergence application (score 0-5): 0
[10]
  Control of ECHCG after post-emergence application (score 0-5): 5
[11]
  Control of LOLPE after post-emergence application (score 0-5): 2
[12]
  Control of SETFA after post-emergence application (score 0-5): 3

## O=C1NCCN1c1ccc(-c2cncc(F)c2)nc1C(F)(F)F [Compound B64]
[1]
  Control of TRAZW after pre-emergence application (score 0-5): 0
[2]
  Control of AVEFA after pre-emergence application (score 0-5): 0
[3]
  Control of ALOMY after pre-emergence application (score 0-5): 0
[4]
  Control of ECHCG after pre-emergence application (score 0-5): 1
[5]
  Control of LOLPE after pre-emergence application (score 0-5): 0
[6]
  Control of SETFA after pre-emergence application (score 0-5): 2
[7]
  Control of TRAZW after post-emergence application (score 0-5): 0
[8]
  Control of AVEFA after post-emergence application (score 0-5): 3
[9]
  Control of ALOMY after post-emergence application (score 0-5): 0
[10]
  Control of ECHCG after post-emergence application (score 0-5): 4
[11]
  Control of LOLPE after post-emergence application (score 0-5): 1
[12]
  Control of SETFA after post-emergence application (score 0-5): 4

## CC(C)(C)NC(=O)Nc1ccc(-c2cncc(F)c2)nc1C(F)(F)F [Compound B65]
[1]
  Control of TRAZW after pre-emergence application (score 0-5): 0
[2]
  Control of AVEFA after pre-emergence application (score 0-5): 2
[3]
  Control of ALOMY after pre-emergence application (score 0-5): 1
[4]
  Control of ECHCG after pre-emergence application (score 0-5): 2
[5]
  Control of LOLPE after pre-emergence application (score 0-5): 1
[6]
  Control of SETFA after pre-emergence application (score 0-5): 3
[7]
  Control of TRAZW after post-emergence application (score 0-5): 0
[8]
  Control of AVEFA after post-emergence application (score 0-5): 3
[9]
  Control of ALOMY after post-emergence application (score 0-5): 1
[10]
  Control of ECHCG after post-emergence application (score 0-5): 5
[11]
  Control of LOLPE after post-emergence application (score 0-5): 3
[12]
  Control of SETFA after post-emergence application (score 0-5): 4

## CN(C(=O)N1CCOCC1)c1ccc(-c2cncc(F)c2)nc1C(F)(F)F [Compound B67]
[1]
  Control of TRAZW after pre-emergence application (score 0-5): 0
[2]
  Control of AVEFA after pre-emergence application (score 0-5): 0
[3]
  Control of ALOMY after pre-emergence application (score 0-5): 0
[4]
  Control of ECHCG after pre-emergence application (score 0-5): 3
[5]
  Control of LOLPE after pre-emergence application (score 0-5): 1
[6]
  Control of SETFA after pre-emergence application (score 0-5): 4
[7]
  Control of TRAZW after post-emergence application (score 0-5): 1
[8]
  Control of AVEFA after post-emergence application (score 0-5): 2
[9]
  Control of ALOMY after post-emergence application (score 0-5): 1
[10]
  Control of ECHCG after post-emergence application (score 0-5): 4
[11]
  Control of LOLPE after post-emergence application (score 0-5): 1
[12]
  Control of SETFA after post-emergence application (score 0-5): 4

## O=C(Nc1ccc(-c2cncc(F)c2)nc1C(F)(F)F)N1CCSC1 [Compound B68, N-[6-(5-fluoro-3-pyridyl)-2-(trifluoromethyl)-3-pyridyl]thiazolidine-3-carboxamide]
[1]
  Control of TRAZW after pre-emergence application (score 0-5): 0
[2]
  Control of AVEFA after pre-emergence application (score 0-5): 2
[3]
  Control of ALOMY after pre-emergence application (score 0-5): 1
[4]
  Control of ECHCG after pre-emergence application (score 0-5): 3
[5]
  Control of LOLPE after pre-emergence application (score 0-5): 1
[6]
  Control of SETFA after pre-emergence application (score 0-5): 4
[7]
  Control of TRAZW after post-emergence application (score 0-5): 2
[8]
  Control of AVEFA after post-emergence application (score 0-5): 3
[9]
  Control of ALOMY after post-emergence application (score 0-5): 0
[10]
  Control of ECHCG after post-emergence application (score 0-5): 5
[11]
  Control of LOLPE after post-emergence application (score 0-5): 2
[12]
  Control of SETFA after post-emergence application (score 0-5): 5

## O=C(Nc1ccc(-c2cncc(F)c2)nc1C(F)(F)F)NN1CCOCC1 [Compound B69]
[1]
  Control of TRAZW after pre-emergence application (score 0-5): 0
[2]
  Control of AVEFA after pre-emergence application (score 0-5): 1
[3]
  Control of ALOMY after pre-emergence application (score 0-5): 0
[4]
  Control of ECHCG after pre-emergence application (score 0-5): 2
[5]
  Control of LOLPE after pre-emergence application (score 0-5): 1
[6]
  Control of SETFA after pre-emergence application (score 0-5): 4
[7]
  Control of TRAZW after post-emergence application (score 0-5): 1
[8]
  Control of AVEFA after post-emergence application (score 0-5): 3
[9]
  Control of ALOMY after post-emergence application (score 0-5): 0
[10]
  Control of ECHCG after post-emergence application (score 0-5): 4
[11]
  Control of LOLPE after post-emergence application (score 0-5): 2
[12]
  Control of SETFA after post-emergence application (score 0-5): 4

## O=C(Nc1cncnc1)Nc1ccc(-c2cncc(F)c2)nc1C(F)(F)F [Compound B70]
[1]
  Control of TRAZW after pre-emergence application (score 0-5): 0
[2]
  Control of AVEFA after pre-emergence application (score 0-5): 0
[3]
  Control of ALOMY after pre-emergence application (score 0-5): 0
[4]
  Control of ECHCG after pre-emergence application (score 0-5): 1
[5]
  Control of LOLPE after pre-emergence application (score 0-5): 0
[6]
  Control of SETFA after pre-emergence application (score 0-5): 2
[7]
  Control of TRAZW after post-emergence application (score 0-5): 1
[8]
  Control of AVEFA after post-emergence application (score 0-5): 1
[9]
  Control of ALOMY after post-emergence application (score 0-5): 0
[10]
  Control of ECHCG after post-emergence application (score 0-5): 3
[11]
  Control of LOLPE after post-emergence application (score 0-5): 1
[12]
  Control of SETFA after post-emergence application (score 0-5): 3
